# Data reported in patent publication US9771369B2, “Compounds and methods for kinase modulation, and indications therefor” (Plexxikon Inc., priority 2014, dated 2017).
# Target: c-Kit kinase (Homo sapiens (Human), UniProt P10721)
# Test: c-Kit biochemical assay (AlphaScreen kinase activity)
# In short: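 AlphaScreen: c-Kit phosphorylates biotin-(E4Y)3 (100 nM) at 10 μM ATP, pH 7.2 HEPES buffer with Mg/Mn, 5% DMSO, 1 h room temperature; streptavidin donor and PY30 acceptor beads detect product. Second format: 100 μM ATP, 30 nM biotin-(E4Y)10, pH 7.5. IC50 from 8-point 1:3 dilution curves.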
# Chain of c-Kit kinase (P10721 26-976): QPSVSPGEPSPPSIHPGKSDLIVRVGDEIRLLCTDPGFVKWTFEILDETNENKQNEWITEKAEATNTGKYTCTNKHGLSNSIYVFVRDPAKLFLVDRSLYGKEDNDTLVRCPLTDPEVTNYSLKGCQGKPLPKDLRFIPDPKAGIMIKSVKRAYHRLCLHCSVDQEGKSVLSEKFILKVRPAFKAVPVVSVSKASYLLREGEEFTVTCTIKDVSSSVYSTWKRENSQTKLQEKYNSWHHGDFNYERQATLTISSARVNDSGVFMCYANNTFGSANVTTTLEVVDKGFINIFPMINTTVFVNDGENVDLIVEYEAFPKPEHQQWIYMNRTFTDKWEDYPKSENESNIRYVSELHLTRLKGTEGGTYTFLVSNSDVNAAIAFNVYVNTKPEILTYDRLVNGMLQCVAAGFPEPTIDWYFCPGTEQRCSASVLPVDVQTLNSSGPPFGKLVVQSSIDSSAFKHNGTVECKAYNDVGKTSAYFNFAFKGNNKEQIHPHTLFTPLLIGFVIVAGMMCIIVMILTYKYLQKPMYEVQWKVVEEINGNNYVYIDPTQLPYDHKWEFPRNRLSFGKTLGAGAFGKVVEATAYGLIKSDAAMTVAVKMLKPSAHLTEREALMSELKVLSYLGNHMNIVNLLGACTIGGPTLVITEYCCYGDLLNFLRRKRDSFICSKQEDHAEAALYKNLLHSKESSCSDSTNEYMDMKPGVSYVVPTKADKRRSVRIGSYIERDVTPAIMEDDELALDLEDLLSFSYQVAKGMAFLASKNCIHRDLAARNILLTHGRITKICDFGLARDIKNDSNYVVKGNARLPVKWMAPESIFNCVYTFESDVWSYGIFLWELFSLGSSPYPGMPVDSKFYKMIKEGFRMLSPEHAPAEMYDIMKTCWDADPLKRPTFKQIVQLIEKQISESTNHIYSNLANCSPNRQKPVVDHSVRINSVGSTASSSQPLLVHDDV
row,SMILES,IC50 [µM]
1,"CCOc1ccc(-c2[nH]c(C3(C)CCN(c4ncnc5[nH]c(-c6cnn(C(F)F)c6)cc45)CC3)nc2C)cc1 [P-3170, 6-[1-(difluoromethyl)pyrazol-4-yl]-4-[4-[5-(4-ethoxyphenyl)-4-methyl-1H-imidazol-2-yl]-4-methyl-1-piperidyl]-7H-pyrrolo[2,3-d]pyrimidine]",0.0001 to 1
2,"Fc1ccc(-c2cc3c(N4CCC(c5nnc(-c6cccc(OC(F)F)c6)[nH]5)CC4)ncnc3[nH]2)cc1 [P-3204, 4-[4-[5-[3-(difluoromethoxy)phenyl]-4H-1,2,4-triazol-3-yl]-1-piperidyl]-6-(4-fluorophenyl)-7H-pyrrolo[2,3-d]pyrimidine]",10 to 300
3,"COc1cc(-c2cc3c(N4CCC(c5nnc(-c6ccc(F)cc6)[nH]5)CC4)ncnc3[nH]2)ccn1 [P-3205, 4-[4-[5-(4-fluorophenyl)-4H-1,2,4-triazol-3-yl]-1-piperidyl]-6-(2-methoxy-4-pyridyl)-7H-pyrrolo[2,3-d]pyrimidine]",10 to 300
